Two compounds from patent publication US20240208933A1, “CRYSTALLINE INHIBITORS OF CYSTEINE PROTEASES AND METHODS OF USE THEREOF” (priority 2021, published 2024) can be followed below.

Each structure is given as a SMILES string. Where two headings read alike, the source gives them in different places.

Data set [1] in a line: Dynamic vapor sorption (DVS) analysis. It is filed as physicochemical.
Data set [2] can be described thus: Approximate solubility determined by visual observation. As to conditions: organic solvent or mixture. Type of data set: physicochemical. How it is done:
Approximate solubility was determined by visual observation and shown in Form C Table 8.
Approximate solubility was determined by visual observation and shown in Form F Table 12.

With `N#C[C@H](C[C@@H]1CCCNC1=O)NC(=O)[C@H](CC1CC1)NC(=O)c1cc2cccc(Cl)c2[nH]1` [Form C, 7-chloro-N—((S)-1-(((S)-1-cyano-2-((S)-2-oxopiperidin-3-yl)ethyl)amino)-3-cyclopropyl-1-oxopropan-2-yl)-1H-indole-2-carboxamide, anhydrate], the “DVS reversible total mass change” value in data set [1] (from about 90% to about 0% RH) was “about 0.7%”. Moreover, the DVS gain result in data set [1] (to about 90% relative humidity (RH) at 25° C.) was “about 0.5%”. For the same compound, the solubility (in general, the concentration that dissolves in the medium under given conditions) in data set [2] (acetone, solvent Acetone, read-out: Solubility of Form C) was less than 2 mg/mL; in data set [2] (ethanol, solvent Ethanol, read-out: Solubility of Form C), more than 2 mg/mL; in data set [2] (methanol, solvent Methanol, read-out: Solubility of Form C), more than 9 mg/mL; in data set [2] (methanol/dichloromethane (1/1), solvent Methanol/Dichloromethane (1/1), read-out: Solubility of Form C) it was more than 23 mg/mL; in data set [2] (methanol/dichloromethane (1/2), solvent Methanol/Dichloromethane (1/2), read-out: Solubility of Form C) it was more than 28 mg/mL; in data set [2] (methanol/dichloromethane (2/1), solvent Methanol/Dichloromethane (2/1), read-out: Solubility of Form C), more than 16 mg/mL.

For the compound `N#C[C@H](C[C@@H]1CCCNC1=O)NC(=O)[C@H](CC1CC1)NC(=O)c1cc2cccc(Cl)c2[nH]1` [Form F, 7-chloro-N—((S)-1-(((S)-1-cyano-2-((S)-2-oxopiperidin-3-yl)ethyl)amino)-3-cyclopropyl-1-oxopropan-2-yl)-1H-indole-2-carboxamide, hydrate], in data set [1] (from about 0 to about 90% relative humidity (RH), no hysteresis), the DVS reversable gain result is “about 4 wt. %”. Also, the solubility in data set [2] (acetone, solvent Acetone, read-out: Solubility of Form F) was less than 2 mg/mL; in data set [2] (ethanol, solvent Ethanol, read-out: Solubility of Form F), more than 7 mg/mL; in data set [2] (methanol, solvent Methanol, read-out: Solubility of Form F), more than 11 mg/mL; in data set [2] (methanol/dichloromethane (1/1), solvent Methanol/Dichloromethane (1/1), read-out: Solubility of Form F), more than 47 mg/mL; in data set [2] (methanol/dichloromethane (1/2), solvent Methanol/Dichloromethane (1/2), read-out: Solubility of Form F), more than 58 mg/mL; in data set [2] (methanol/dichloromethane (2/1), solvent Methanol/Dichloromethane (2/1), read-out: Solubility of Form F), more than 19 mg/mL.
